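Five concentrations, 48 hours, 96-well plates. The concentration for 50% growth inhibition is given as GI50.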 Activity calls are given as the source filed them. No stated cut-off is given here; in the data, active = GI50 up to about 1.1 µM and inactive = higher. Where a SMILES comes first, the peptide text is derived from it. [ ]: non-standard residue; d: D form. The star is where a group is joined. ξ: configuration not given here. Propanoyl(3-(4-MeO-Ph)) = COc1ccc(CCC(=O)*)cc1; Thr(3ξ) = CC(O)[C@H](N)C(=O)O; dNMeL = CN[C@H](CC(C)C)C(=O)O; OBn = c1ccc(CO*)cc1; ξLac = CC(O)C(=O)O
Assays:
Test in all cases: growth of human tumour cells (NCI), 48 h
[1] = system: 786-0
[2] = system: A498
[3] = system: A549
[4] = system: ACHN
[5] = system: BT-549
[6] = system: CAKI-1
[7] = system: CCRF-CEM
[8] = system: COLO 205
[9] = system: DU-145
[10] = system: EKVX
[11] = system: HCC 2998
[12] = system: HCT-116
[13] = system: HCT-15
[14] = system: HL-60
[15] = system: HOP-62
[16] = system: HOP-92
[17] = system: HT-29
[18] = system: Hs-578T
[19] = system: IGROV-1
[20] = system: K562
[21] = system: KM12
[22] = system: LOX IMVI
[23] = system: M14
[24] = system: MCF7
[25] = system: MDA-MB-231
[26] = system: MDA-MB-435
[27] = system: MDA-N
[28] = system: MOLT-4
[29] = system: Malme-3M
[30] = system: NCI-H226
[31] = system: NCI-H23
[32] = system: NCI-H460
[33] = system: NCI-H522
[34] = system: NCI/ADR-RES
[35] = system: OVCAR-3
[36] = system: OVCAR-4
[37] = system: OVCAR-5
[38] = system: OVCAR-8
[39] = system: PC-3
[40] = system: RPMI-8226
[41] = system: RXF 393
[42] = system: SF-268
[43] = system: SF-295
[44] = system: SF-539
[45] = system: SK-MEL-28
[46] = system: SK-MEL-2
[47] = system: SK-MEL-5
[48] = system: SK-OV-3
[49] = system: SN12C
[50] = system: SNB-19
[51] = system: SNB-75
[52] = system: SR
[53] = system: SW-620
[54] = system: T47D
[55] = system: TK-10
[56] = system: U-251
[57] = system: UACC-257
[58] = system: UACC-62
[59] = system: UO-31

In the case of `CCN(CC)CC(O)c1ccc2ccc3ccccc3c2c1` (stereo not drawn), the GI50 [1] is reported as 12.9 µM (inactive), the GI50 [2] is reported as 12.6 µM (inactive) and the GI50 [3] is reported as 15.7 µM (inactive). For the same molecule, the GI50 [4] was 14.3 µM (inactive), the GI50 [5] was 15.8 µM (inactive) and the GI50 [6] was 13.1 µM (inactive). The GI50 [7] was 23.7 µM (inactive), the GI50 [8] was 13.9 µM (inactive) and the GI50 [9] was 19 µM (inactive). The GI50 [10] was 14.1 µM (inactive), the GI50 [11] was 11 µM (inactive) and the GI50 [12] was 15.3 µM (inactive). For the same molecule, the GI50 [13] was 16.3 µM, the GI50 [14] was 14.1 µM (inactive) and the GI50 [15] was 16.1 µM (inactive). For the same molecule, the GI50 [16] was 14.2 µM (inactive), the GI50 [17] was 11.5 µM (inactive) and the GI50 [18] was 18.7 µM (inactive). For the same molecule, the GI50 [19] was 16.2 µM (inactive), the GI50 [20] was 17 µM (inactive) and the GI50 [21] was 15.4 µM (inactive). The GI50 [22] was 17.9 µM (inactive), the GI50 [23] was 16.3 µM (inactive) and the GI50 [24] was 14.8 µM (inactive). The GI50 [25] was 14.5 µM (inactive), the GI50 [26] was 16.3 µM (inactive) and the GI50 [27] was 15.6 µM (inactive). The GI50 [28] was 16.4 µM (inactive), the GI50 [29] was 16.9 µM (inactive) and the GI50 [30] was 13.6 µM (inactive). For the same molecule, the GI50 [31] was 16.9 µM (inactive), the GI50 [32] was 17.5 µM (inactive) and the GI50 [33] was 15.6 µM (inactive). The GI50 [34] was 16.3 µM (inactive), the GI50 [35] was 15.7 µM (inactive) and the GI50 [36] was 17.4 µM (inactive). For the same molecule, the GI50 [37] was 13.6 µM (inactive), the GI50 [38] was 16.7 µM (inactive) and the GI50 [39] was 15.8 µM (inactive). The GI50 [40] was 18.9 µM (inactive), the GI50 [41] was 16.8 µM (inactive) and the GI50 [42] was 17.8 µM (inactive). For the same molecule, the GI50 [43] was 15.2 µM (inactive), the GI50 [44] was 12.6 µM (inactive) and the GI50 [45] was 19.7 µM (inactive). The GI50 [46] was 16.1 µM (inactive), the GI50 [47] was 13.9 µM (inactive) and the GI50 [48] was 16 µM (inactive). For the same molecule, the GI50 [49] was 16.3 µM (inactive), the GI50 [50] was 14.7 µM (inactive) and the GI50 [51] was 19.1 µM (inactive). For the same molecule, the GI50 [52] was 5.69 µM (inactive), the GI50 [53] was 18.5 µM (inactive) and the GI50 [54] was 20 µM (inactive). The GI50 [55] was 15.8 µM (inactive), the GI50 [56] was 13.3 µM (inactive) and the GI50 [57] was 16.4 µM (inactive). For the same molecule, the GI50 [58] was 15.3 µM (inactive) and the GI50 [59] was 11.2 µM (inactive).
`COc1ccc(CCC(=O)OC(C)[C@H](NC(=O)[C@@H](CC(C)C)N(C)C(=O)[C@@H]2CCCN2C(=O)C(C)O)C(=O)OCc2ccccc2)cc1` (stereo partly drawn) (H-[ξLac]P[dNMeL][Thr(3ξ)](Propanoyl(3-(4-MeO-Ph)))-OBn) was tested, and the GI50 [1] was 35.2 µM (inactive), the GI50 [2] was 28.7 µM (inactive) and the GI50 [3] was 52.4 µM (inactive). For the same molecule, the GI50 [4] was 41.6 µM (inactive), the GI50 [5] was 43.6 µM (inactive) and the GI50 [6] was > 100 µM (inactive). The GI50 [7] was 26.9 µM (inactive), the GI50 [8] was 19.5 µM (inactive) and the GI50 [9] was 62.5 µM (inactive). For the same molecule, the GI50 [10] was 80.7 µM (inactive), the GI50 [11] was 40.4 µM (inactive) and the GI50 [12] was 43.7 µM (inactive). For the same molecule, the GI50 [13] was 32.3 µM, the GI50 [14] was 28.2 µM (inactive) and the GI50 [15] was 99.8 µM (inactive). The GI50 [16] was 19.1 µM (inactive), the GI50 [17] was 36.5 µM (inactive) and the GI50 [18] was 12.9 µM (inactive). The GI50 [19] was 30.5 µM (inactive), the GI50 [20] was 27.8 µM (inactive) and the GI50 [21] was 27.9 µM (inactive). The GI50 [22] was 17.9 µM (inactive), the GI50 [23] was 16.9 µM (inactive) and the GI50 [24] was 38.1 µM (inactive). The GI50 [25] was 19.3 µM (inactive), the GI50 [26] was 21.8 µM (inactive) and the GI50 [27] was 32.4 µM (inactive). For the same molecule, the GI50 [28] was 24.3 µM (inactive), the GI50 [29] was 20.8 µM (inactive) and the GI50 [30] was 30.4 µM (inactive). For the same molecule, the GI50 [31] was 41.4 µM (inactive), the GI50 [32] was 64.4 µM (inactive) and the GI50 [33] was 24.3 µM (inactive). The GI50 [34] was 27.5 µM (inactive), the GI50 [35] was 29.8 µM (inactive) and the GI50 [36] was 73.8 µM (inactive). The GI50 [37] was > 100 µM (inactive), the GI50 [38] was 96.2 µM (inactive) and the GI50 [39] was 30.5 µM (inactive). For the same molecule, the GI50 [40] was 28.7 µM (inactive), the GI50 [41] was 22.1 µM (inactive) and the GI50 [42] was 31.5 µM (inactive). For the same molecule, the GI50 [43] was 35.2 µM (inactive), the GI50 [44] was 24.6 µM (inactive) and the GI50 [45] was 17.8 µM (inactive). For the same molecule, the GI50 [46] was 16.7 µM (inactive), the GI50 [47] was 15.5 µM (inactive) and the GI50 [48] was 84.1 µM (inactive). For the same molecule, the GI50 [49] was 34.9 µM (inactive), the GI50 [50] was 66.2 µM (inactive) and the GI50 [51] was 19.9 µM (inactive). For the same molecule, the GI50 [52] was 34.4 µM (inactive), the GI50 [53] was 32.3 µM (inactive) and the GI50 [54] was 33.6 µM (inactive). The GI50 [55] was 18.9 µM (inactive), the GI50 [56] was 26.5 µM (inactive) and the GI50 [57] was 18.4 µM (inactive). The GI50 [58] was 19.2 µM (inactive) and the GI50 [59] was 40.5 µM (inactive).
